Test results as given in patent US5264429A, “2-spirocyclopropyl cephalosporin sulfone derivatives” (SynPhar Laboratories, Inc., priority 1991, dated 1993).

Assays:
[1] = target: T1, human leukocyte elastase (HLE) (Homo sapiens, UniProt P08246); assay: Enzyme Assay for Inhibition of HLE; format: biochemical; conditions: HLE 10 nM, pH 7.6, 10 minute preincubation, 30° C.
T1 construct: from tissue; host or cells: human white blood cells
T1 sequence (P08246 30-247 limits assumed): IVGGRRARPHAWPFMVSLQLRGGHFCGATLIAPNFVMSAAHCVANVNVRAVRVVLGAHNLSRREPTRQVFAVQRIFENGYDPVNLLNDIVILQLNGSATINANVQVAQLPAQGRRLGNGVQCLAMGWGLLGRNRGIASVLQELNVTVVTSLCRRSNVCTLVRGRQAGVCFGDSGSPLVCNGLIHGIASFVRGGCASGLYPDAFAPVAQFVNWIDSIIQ
Protocol: Enzyme Assay for Inhibition of HLE:
Enzyme: Purified elastase from human white blood cells.
Substrate: MeO-succinyl-L-alanyl-L-alanyl-L-prolyl-L-valine-p-nitro-anilide(NA).
Reaction Mixture: 10 mM phosphate buffer (pH 7.6), 500 mM NaCl, 10% dimethylsulfoxide (DMSO), 0.35 mM substrate.
The enzyme activity was determined by monitoring the increase in absorbance at 410 nm caused by the hydrolysis of chromogenic substrates. Inhibition of enzyme by the compounds described were determined after a 10 minute preincubation with the enzyme in reaction mixture minus substrate. Reaction was initiated by the addition of substrate. The concentration of human leukocyte elastase used for assay was at 10 nM.
HLE, CTG, PPE and CTD were tested at 30° C. and the others were […]

thrombin = target: T2, thrombin (Homo sapiens, UniProt P00734); assay: Inhibition of thrombin (THR); format: biochemical; conditions: pH 8.6, 10 minute preincubation, 22° C.
T2 construct: from tissue; host or cells: human plasma
Protocol: (§1) HLE, CTG, PPE and CTD were tested at 30° C. and the others were
(§2) TRY, trypsin; THR, thrombin; PTH, plasmin; CTC, cathepsin C; ATM,
Enzyme: Purified thrombin from human plasma
Substrate: Tosyl-glycyl-L-prolyl-L-arginine-p-NA acetate
Reaction mixture: 50 mM Tricine-NaOH buffer (pH 8.6), 500 mM NaCl, 0.1% Polyethyleneglycol 8000, 10% DMSO, 0.5 mM Substrate.
(§3) Except for Cathepsin D, the enzyme activities were determined by monitoring the increase in absorbance at 410 nm caused by the hydrolysis of chromogenic substrates. The activity of Cathepsin D was determined by monitoring the absorbance of 5% trichloroacetic acid-soluble material at 280 nm.
(§4) Inhibition of enzymes by the compounds described were determined after a 10 minute preincubation with enzymes in reaction mixtures minus substrate. Reactions were initiated by the addition of substrates. The concentration used for assays were porcine pancreatic elastase at 240 nM and human Cathepsin G at 50 nM. Cathepsin D was used at the concentration that produced approximately 0.15 O.D. increase per 20 min at 280 nm under the standard conditions. All other proteases were assayed at the concentrations that produced approximately 0.1 O.D. change per minute at 410 nm under the standard conditions.

trypsin = target: T3, trypsin (Bos taurus, UniProt P00760); assay: Inhibition of trypsin (TRY); format: biochemical, bovine; conditions: trypsin, pH 8.8, 10 minute preincubation, 22° C.; read-out: IC50 TRY (converted)
T3 construct: from tissue; host or cells: bovine pancreas
T3 sequence (P00760 24-246): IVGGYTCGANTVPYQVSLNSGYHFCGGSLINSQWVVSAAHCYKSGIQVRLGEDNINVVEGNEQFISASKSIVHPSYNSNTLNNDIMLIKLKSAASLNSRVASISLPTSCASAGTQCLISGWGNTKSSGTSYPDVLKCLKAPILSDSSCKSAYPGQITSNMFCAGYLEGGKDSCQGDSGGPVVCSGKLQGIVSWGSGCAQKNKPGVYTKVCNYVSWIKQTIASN
Protocol: Enzyme: Purified trypsin from bovine pancreas
Substrate: Bz-L-arginine-p-NA
Reaction mixture: 50 mM Tricine[N-Tris(hydroxymethyl)methylglycine]-NaOH buffer (pH 8.8) 150 mM NaCl, 10% DMSO 1.0 mM Substrate.
Inhibition of enzymes by the compounds described were determined after a 10 minute preincubation with enzymes in reaction mixtures minus substrate. Reactions were initiated by the addition of substrates. […] All other proteases were assayed at the concentrations that produced approximately 0.1 O.D. change per minute at 410 nm under the standard conditions.

cathepsin G = target: T4, cathepsin G (Homo sapiens, UniProt P08311); assay: Inhibition of cathepsin G (CTG); format: biochemical; conditions: cathepsin G 50 nM, pH 7.5, 10 minute preincubation, 30° C.; read-out: IC50 CTG (converted)
T4 construct: from tissue; host or cells: human white blood cells
T4 sequence (P08311 21-244 limits assumed): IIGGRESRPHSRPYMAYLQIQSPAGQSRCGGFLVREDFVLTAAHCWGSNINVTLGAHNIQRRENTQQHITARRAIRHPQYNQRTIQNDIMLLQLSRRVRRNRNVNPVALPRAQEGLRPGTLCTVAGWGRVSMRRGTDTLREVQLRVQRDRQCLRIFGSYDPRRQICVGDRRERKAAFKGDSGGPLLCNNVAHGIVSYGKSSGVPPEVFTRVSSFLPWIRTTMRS
Protocol: Enzyme: Purified Cathepsin G from human white blood cells
Substrate: N-succinyl-L-alanyl-L-alanyl-L-phenylalanyl-L-phenylalanine -p-NA.
Reaction mixture: 10 mM Phosphate buffer (pH 7.5), 500 mM NaCl, 10% DMSO, 2.0 mM Substrate.

plasmin = target: T5, plasmin (Homo sapiens, UniProt P00747); assay: Inhibition of plasmin (PTH); format: biochemical; conditions: pH 8.9, 10 minute preincubation, 22° C.
T5 construct: from tissue; host or cells: human plasma
T5 sequence (P00747 581-810 limits assumed): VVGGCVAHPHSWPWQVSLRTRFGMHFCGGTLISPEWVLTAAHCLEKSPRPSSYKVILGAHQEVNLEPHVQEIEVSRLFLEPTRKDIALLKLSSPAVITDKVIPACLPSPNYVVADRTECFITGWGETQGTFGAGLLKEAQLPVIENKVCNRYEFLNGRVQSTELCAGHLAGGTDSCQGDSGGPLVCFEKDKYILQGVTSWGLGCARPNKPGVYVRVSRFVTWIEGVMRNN
T5 sequence (P00747 97-580 partner limits assumed): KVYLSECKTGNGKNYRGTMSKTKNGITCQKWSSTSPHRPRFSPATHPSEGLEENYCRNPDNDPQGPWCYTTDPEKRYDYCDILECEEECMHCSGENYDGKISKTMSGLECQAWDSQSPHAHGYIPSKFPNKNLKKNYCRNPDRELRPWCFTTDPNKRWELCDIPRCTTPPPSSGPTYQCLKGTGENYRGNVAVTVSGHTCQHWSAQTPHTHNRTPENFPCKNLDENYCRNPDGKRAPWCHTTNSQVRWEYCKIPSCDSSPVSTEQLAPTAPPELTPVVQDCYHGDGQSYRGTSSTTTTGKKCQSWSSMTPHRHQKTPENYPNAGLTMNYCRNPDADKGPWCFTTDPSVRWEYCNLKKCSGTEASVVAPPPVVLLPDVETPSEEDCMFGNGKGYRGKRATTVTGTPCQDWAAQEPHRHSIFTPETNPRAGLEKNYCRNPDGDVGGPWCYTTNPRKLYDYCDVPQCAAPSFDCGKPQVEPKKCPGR
Protocol: as §1, §2
Enzyme: Purified plasmin from human plasma Substrate: Tosyl-glyclyl-L-prolyl-L-lysine-pNA acetate
Reaction mixture: 50 mM Tris-HCl buffer (pH 8.9), 500 mM NaCl, 5% DMSO, 0.5 mM Substrate.
as §3, §4

cathepsin D = target: T6, cathepsin D (Bos taurus, UniProt P80209); assay: Inhibition of cathepsin D (CTD); format: biochemical, bovine
T6 construct: from tissue; host or cells: bovine spleen
T6 sequence (P80209 45-390): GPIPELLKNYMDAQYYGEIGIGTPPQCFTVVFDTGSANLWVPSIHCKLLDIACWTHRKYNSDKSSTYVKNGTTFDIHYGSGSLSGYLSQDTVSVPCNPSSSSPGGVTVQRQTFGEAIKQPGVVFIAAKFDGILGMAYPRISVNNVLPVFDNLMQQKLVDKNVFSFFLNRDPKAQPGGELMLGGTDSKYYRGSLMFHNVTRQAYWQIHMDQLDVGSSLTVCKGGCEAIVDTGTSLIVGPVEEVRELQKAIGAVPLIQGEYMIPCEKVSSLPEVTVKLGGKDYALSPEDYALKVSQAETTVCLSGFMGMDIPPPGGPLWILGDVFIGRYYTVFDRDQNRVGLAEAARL
Protocol: as §4, with “Except for Cathepsin D, the enzyme activities were determined by monitoring the increase in absorbance at 410 nm caused by the hydrolysis of chromogenic substrates. The activity of Cathepsin D was determined by monitoring the absorbance of 5% trichloroacetic acid-soluble material at 280 nm. Inhibition” for “Inhibition”, “The concentration used for assays were porcine pancreatic elastase at 240 nM and human Cathepsin G at 50 nM.” left out

aminopeptidase M = target: T7, aminopeptidase M (Sus scrofa, UniProt P15145); assay: Inhibition of aminopeptidase M (ATM); format: biochemical, porcine; conditions: aminopeptidase M, pH 7.5, 10 minute preincubation, 22° C.; read-out: IC50 ATM
T7 construct: from tissue; host or cells: porcine kidney
T7 sequence (P15145 1-963): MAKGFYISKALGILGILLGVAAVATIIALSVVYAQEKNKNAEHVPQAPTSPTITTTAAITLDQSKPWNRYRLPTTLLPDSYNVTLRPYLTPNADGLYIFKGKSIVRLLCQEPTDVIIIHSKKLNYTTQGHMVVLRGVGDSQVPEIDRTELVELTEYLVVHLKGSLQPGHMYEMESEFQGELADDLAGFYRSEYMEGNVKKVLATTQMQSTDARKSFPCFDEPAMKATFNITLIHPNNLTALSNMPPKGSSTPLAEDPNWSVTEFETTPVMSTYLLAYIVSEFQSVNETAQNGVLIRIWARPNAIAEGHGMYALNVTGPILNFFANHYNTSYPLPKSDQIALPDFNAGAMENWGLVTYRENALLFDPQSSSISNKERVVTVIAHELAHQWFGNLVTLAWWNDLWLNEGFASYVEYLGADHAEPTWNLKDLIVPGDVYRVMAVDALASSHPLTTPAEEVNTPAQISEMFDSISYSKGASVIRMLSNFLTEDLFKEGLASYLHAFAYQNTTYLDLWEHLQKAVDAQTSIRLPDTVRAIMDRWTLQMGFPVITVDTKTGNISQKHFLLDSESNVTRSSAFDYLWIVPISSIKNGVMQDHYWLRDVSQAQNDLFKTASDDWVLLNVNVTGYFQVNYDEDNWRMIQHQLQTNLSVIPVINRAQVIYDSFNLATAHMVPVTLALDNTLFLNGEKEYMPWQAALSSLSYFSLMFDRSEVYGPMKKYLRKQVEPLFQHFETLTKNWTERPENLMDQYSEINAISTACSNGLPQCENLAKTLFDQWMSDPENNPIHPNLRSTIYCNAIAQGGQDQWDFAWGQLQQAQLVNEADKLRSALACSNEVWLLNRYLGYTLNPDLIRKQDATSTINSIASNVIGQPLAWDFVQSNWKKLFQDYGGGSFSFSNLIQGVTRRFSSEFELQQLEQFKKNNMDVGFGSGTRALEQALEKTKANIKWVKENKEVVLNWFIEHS
Protocol: as §1, §2
aminopeptidase M; CTG, cathespin G; CTD, cathespin D; PPE, porcine
Enzyme: Purified aminopeptidase M from porcine kidney
Reaction Mixture: 50 mM Tricine buffer (pH 7.5), 500 mM NaCl, 10% DMSO, 2.0 mM Substrate.
as §3, §4

cathepsin C = target: T8, cathepsin C (Bos taurus, UniProt Q3ZCJ8); assay: Inhibition of cathepsin C (CTC); format: biochemical, bovine; conditions: cathepsin C, pH 5.4, 10 minute preincubation, 22° C.; read-out: IC50 CTC
T8 construct: from tissue; host or cells: bovine spleen
T8 sequence (Q3ZCJ8 231-394 limits assumed): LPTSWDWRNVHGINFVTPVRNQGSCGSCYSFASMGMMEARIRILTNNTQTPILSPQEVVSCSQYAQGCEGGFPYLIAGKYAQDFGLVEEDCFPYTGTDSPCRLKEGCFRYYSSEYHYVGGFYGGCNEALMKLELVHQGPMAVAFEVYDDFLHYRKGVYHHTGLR
T8 sequence (Q3ZCJ8 395-463 limits assumed): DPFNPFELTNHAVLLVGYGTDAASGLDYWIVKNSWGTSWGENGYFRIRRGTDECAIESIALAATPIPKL
T8 sequence (Q3ZCJ8 25-134 limits assumed): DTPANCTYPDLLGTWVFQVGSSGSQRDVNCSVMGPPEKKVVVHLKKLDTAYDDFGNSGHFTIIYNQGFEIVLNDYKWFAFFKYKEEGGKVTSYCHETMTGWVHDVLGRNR
Protocol: as §1, §2
Enzyme: Purified cathepsin C from bovine spleen
Substrate: Glycyl-L-phenylalanine-pNA
Reaction mixture: 50 mM Citrate buffer (pH 5.4), 5 mM B-Mercaptoethanol, 150 mM NaCl, 10% DMSO, 20 mM Substrate.
as §3, §4

With `Cc1nnc(SCC2=C(C(=O)OC(c3ccccc3)c3ccccc3)N3C(=O)[C@H](Br)[C@H]3[S+]([O-])C23CC3(c2ccc(Cl)cc2)c2ccc(Cl)cc2)s1` (stereo partly drawn) [Benzhydryl-7α-bromo-2-spiro[2',2'-(4',4'-dichloro)diphenyl]-cyclopropyl-3-[(5-methyl-1,3,4-thiadiazol-2-yl)thiomethyl]-3-cephem-4-carboxylate-1-oxide] the IC50 [1] was 48.9 nM.
`CC(=O)OCC1=C(C(=O)OC(C)(C)C)N2C(=O)[C@H](Cl)[C@H]2S(=O)(=O)C12CC2(c1ccccc1)c1ccccc1` (stereo partly drawn) [Example 4, t-Butyl 7α-chloro-2-spiro(2',2'-diphenyl)cyclopropyl-3-acetoxymethyl-3-cephem-4-carboxylate-1,1-dioxide] was tested, and the IC50 [1] was 91.4 nM.
In the case of `CC1=C(C(=O)OC(c2ccccc2)c2ccccc2)N2C(=O)CC2S(=O)(=O)C12CC2(c1ccccc1)c1ccccc1` (stereo not shown) [Example 5, Benzhydryl 7,7-dihydro-2-spiro(2',2'-diphenyl)cyclopropyl-3-methyl-3-cephem-4-carboxylate-1,1-dioxide], the IC50 [1] is reported as 149 nM.
Compound `CO[C@H]1C(=O)N2C(C(=O)N3CCCCC3)=C(C)C3(CC3(c3ccccc3)c3ccccc3)S(=O)(=O)[C@H]12` (stereo partly drawn) [Example 11, 7α-Methoxy-2-spiro (2',2'-diphenyl)cyclopropyl-3-methyl-3-cephem-4-piperidine carboxamide-1,1-dioxide] has an IC50 (thrombin) of over 39900 nM, an IC50 (trypsin) of over 10000 nM and an IC50 (cathepsin G) of over 10000 nM. For the same compound, the IC50 (plasmin) was over 10000 nM, the IC50 (cathepsin D) was 31.6 nM and the IC50 (aminopeptidase M) was over 10000 nM. The IC50 (cathepsin C) was over 10000 nM and the IC50 [1] was 10.7 nM.
`CC1=C(C(=O)OC(c2ccccc2)c2ccccc2)N2C(=O)[C@H](Br)[C@H]2S(=O)(=O)C12CC2c1ccccc1` (stereo partly drawn) [Example 13 (3), Benzhydryl 7α-bromo-2-spiro(2'-phenyl)cyclopropyl-3-methyl-3-cephem-4-carboxylate-1,1-dioxide] was tested, and the IC50 [1] was 6.57 nM.
In the case of `COc1ccc(COC(=O)C2=C(CCl)C3(CC3(c3ccccc3)c3ccccc3)S(=O)(=O)[C@@H]3[C@@H](Br)C(=O)N23)cc1` (stereo partly drawn) [p-Methoxybenzyl 7α-bromo-2-spiro(2',2'-diphenyl) cyclopropyl-3-chloromethyl-3-cephem-4-carboxylate-1,1-dioxide], the IC50 [1] is reported as 4.04 nM.
